Results taken from paper PMC11480511 (Scientific Reports, 2024).
Several values for one entry are separate records, joined by “and”; a condition that tells them apart may be missing. Equal values may be shown once.

How the values were obtained:
topoisomerase Iα = molecular target: T1, topoisomerase Iα (Homo sapiens, UniProt P11387); assay: Topoisomerase I inhibition, human DNA topoisomerase Elisa kit; assay type: biochemical; details: ± SEM
T1 construct: purchased
T1 sequence (P11387 1-765): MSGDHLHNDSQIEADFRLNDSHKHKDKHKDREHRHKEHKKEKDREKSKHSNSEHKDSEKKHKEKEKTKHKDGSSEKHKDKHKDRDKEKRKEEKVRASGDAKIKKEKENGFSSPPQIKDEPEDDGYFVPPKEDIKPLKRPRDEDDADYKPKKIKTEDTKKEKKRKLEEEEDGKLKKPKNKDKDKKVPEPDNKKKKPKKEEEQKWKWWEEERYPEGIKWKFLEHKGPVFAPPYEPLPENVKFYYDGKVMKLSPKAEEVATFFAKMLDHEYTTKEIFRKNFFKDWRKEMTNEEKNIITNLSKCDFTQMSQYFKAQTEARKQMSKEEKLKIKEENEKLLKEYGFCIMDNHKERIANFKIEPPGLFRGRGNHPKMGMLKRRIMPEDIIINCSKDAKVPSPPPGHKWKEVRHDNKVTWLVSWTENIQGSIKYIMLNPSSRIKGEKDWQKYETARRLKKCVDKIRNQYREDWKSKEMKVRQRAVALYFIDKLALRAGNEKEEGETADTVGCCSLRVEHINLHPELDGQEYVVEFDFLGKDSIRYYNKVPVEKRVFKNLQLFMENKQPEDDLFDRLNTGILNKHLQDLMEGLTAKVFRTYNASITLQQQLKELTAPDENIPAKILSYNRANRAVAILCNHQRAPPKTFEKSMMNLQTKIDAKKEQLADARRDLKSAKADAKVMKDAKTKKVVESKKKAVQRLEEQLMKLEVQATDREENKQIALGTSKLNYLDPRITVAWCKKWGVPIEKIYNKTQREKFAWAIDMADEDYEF
Description: Two folds of serial dilution was accomplished after standards and the tested compounds were dissolved in sample diluent. Horseradish peroxidase (HRP-avidin) and biotin-conjugated antibody were diluted 10 times each. Each well received 100 µL of each concentration of the standard or test chemicals, which were then added and incubated at 37 °C for 60 min. […] The microtiter plate was rinsed three times and given room to aspirate. After that, the plate was incubated at 37 °C for 60 min with 100 µL of HRP-avidin solution added to each well. After that, the plate was aspirated and cleaned 5 times. Each well received 90 µL of TMB substrate, and the plate was incubated for 30 min. at 37 °C in a light-protected environment. Finally, stop solution (50 µL) was loaded, and within 5 min, the absorbance at 450 nm was measured spectrophotometrically.
Topoisomerase enzyme assay
Topoisomerase I and II inhibitory activity […]
topoisomerase IIβ inhibitory activity utilizing the human DNA topoisomerase Elisa kit.
Standards and the tested compound were dissolved in sample diluent and 2 folds serial dilution was achieved. Biotin-conjugated antibody and avidin conjugated Horseradish Peroxidase (HRP-avidin) were diluted to 10 folds. 100 μL of each concentration of standard or test compound were added to each well. Incubate at 37 °C for 1 h. The liquid in each well was removed. 10 0 μL of Biotin-conjugated antibody solution was added to each well followed by incubation for 1 h at 37 °C. The microtiter plate was allowed to aspirate and washed 3 times. 100 μL of avidin conjugated Horseradish Peroxidase (HRP -avidin) solution was added to each well and the plate was incubated for 1 h at 37 °C. The plate was aspirated and washed 5 times. 90 μL of TMB substrate were added to each well and the plate was incubated for 30 min at 37 °C and protected from light. 50 μL stop so lution was added. The absorbance was measured spectrophotometrically within 5 min at 450 nm .

[1] = tested on: melanoma LOX IMVI cell line; assay: Annexin V-FITC/PI apoptosis and necrosis assay; assay type: cell-based, human; details: LOX IMVI treated with IC50 concentration
Description: Following the manufacturer’s instructions, the Annexin V-FITC Apoptosis Detection Kit (Bio Vision Research Products, USA) was used to analyze cell apoptosis. Briefly, 500 µL of 1X Binding buffer was used to resuspend 1-5 × 10^5 cells that had been harvested by centrifugation. Propidium iodide (PI, 50 mg/ml) and Annexin V-FITC, each administered in 5 µL, were also added. The cells were first incubated for 5 minutes at room temperature in the dark before being analyzed using the Annexin V-FITC binding flow cytometric technique (Ex = 488 nm; Em = 530 nm) with a FITC signal detector (typically FL1) and PI staining with a phycoerythrin emission signal detector (typically FL2). Before exposing adherent cells to Annexin V-FITC, we gently trypsinized and gave them a single wash in serum-containing medium (A.3–5). Cell synchronisation is done using Double-thymidine synchronization method and the used Media is double modifed eagle media (DMEM).
Cell cycle analysis and detection of apoptosis
Annexin V-FITC apoptosis assay
Cell apoptosis were analyzed by the Annexin V-FITC Apoptosis Detection Kit (Bio Vision Research Products, USA). Thereafter, 1-5 x 10^5 cells were collected by centrifugation and resuspend in 500 μl of 1X Binding Buffer. Added 5 μl of Annexin V-FITC and 5 μl of propidium iodide (PI 50mg/ml, optional.). The cells incubated at room temperature for 5 min in the dark; Analyzed by Annexin V-FITC binding flow cytometric method (Ex = 488 nm; Em = 530 nm) using FITC signal detector (usually FL1) and PI staining by the phycoerythrin emission signal detector (usually FL2). For adherent cells, we gently trypsinized and washed cells once with serum-containing media before incubation with Annexin V-FITC (A.3-5). […]

normal cell line WI 38 = assay: MTT cytotoxicity assay on normal cells; assay type: cell-based; details: Homo sapiens; normal cell line WI 38, MTT assay, ± SEM; read-out: IC50 W138 normal cell line (µM ± SEM)
Description: After 24 h of culture incubation and supernatants discarded. […] Each test should include a blank containing complete medium without cells. […] Add reconstituted MTT in an amount equal to 10% of the culture medium volume. […] Spectrophotometrically absorbance was measured at a wavelength of 570 nm. […] Results from all experiments were recorded and the percentage of viable cells was calculated.

[2] = tested on: melanoma LOX IMVI cell line; assay: Cell cycle analysis, propidium iodide flow cytometry; assay type: cell-based, human
Description: The effect of compound 3i on cell cycle progression of LOX IMVI cell line was evaluated using Propidium Iodide Flow Cytometry Kit to measure the DNA content according to the reported protocols. The LOX IMVI cells used in this work were obtained from the American Type Culture Collection. Cells were cultured in DMEM (Invitrogen/Life Technologies) supplemented with 10% FBS (Hyclone), 10 µg/ml insulin (Sigma), and 1% penicillin-streptomycin. The remaining chemicals and reagents were all from Sigma or Invitrogen. Growth media was removed, cells washed with warm PBS and aspirated. Adhered cells were detached from media by addition of 5 ml 10% trypsin/EDTA and incubated 2 min in the incubator. The suspended cells harvested, aspirated to a falcon tube, centrifuged at 2000 rpm for 5 min. Cell count performed after suspending the cells into a fresh media and stained with trypan blue, counted and used for preparation of the appropriate number of cells.

[3] = LOX IMVI treated at IC50 concentration

SMILES: O=C(O)c1cn(C2CC2)c2cc(N3CCN(C(=O)CCCN4C(=O)CSC4=O)CC3)c(F)cc2c1=O [3 L, 1-Cyclopropyl-7-(4-(4-(2,4-dioxothiazolidin-3-yl)butanoyl)piperazin-1-yl)-6-fluoro-4-oxo-1,4-dihydroquinoline-3-carboxylic acid]
- IC50 (topoisomerase Iα): 18.8 ± 1.02 µM

SMILES: O=C(O)c1cn(C2CC2)c2cc(N3CCN(C(=O)CCCN4C(=O)SC(=Cc5ccccc5)C4=O)CC3)c(F)cc2c1=O [3a, 7-[4-[4-[5-benzylidene-2,4-dioxo-thiazolidin-3-yl]butanoyl]piperazin-1-yl]-1-cyclopropyl-6-fluoro-4-oxo-quinoline-3-carboxylic acid]
- IC50 (topoisomerase Iα): 14.5 ± 0.79 µM

SMILES: O=C(O)c1cn(C2CC2)c2cc(N3CCN(C(=O)CCCN4C(=O)S/C(=C\c5ccc(F)cc5)C4=O)CC3)c(F)cc2c1=O [3i]
- Apoptosis Early [1]: 3.03%
- Apoptosis Late [1]: 24.17%
- Apoptosis Total [1]: 38.51%
- Necrosis [1]: 11.31%
- IC50 (normal cell line WI 38): 45.1 ± 2.43 µM
- %G0-G1 DNA content [2, 3]: 45.53%
- %G2/M DNA content [2, 3]: 9.41%
- %Pre-G1 DNA content [2, 3]: 38.51%
- %S DNA content [2, 3]: 45.06%
- increase of percentage of cells at pre-G1 ([2]; LOX IMVI, versus control): 20 folds
- IC50 (topoisomerase Iα): 4.8 µM and 4.77 µM

SMILES: O=C(O)c1cn(C2CC2)c2cc(N3CCN(C(=O)CCCN4C(=O)SC(=Cc5cccc6ccccc56)C4=O)CC3)c(F)cc2c1=O [3j, 1-cyclopropyl-6-fluoro-7-[4-[4-[5-(1-naphthylmethylene)-2,4-dioxo-thiazolidin-3-yl]butanoyl]piperazin-1-yl]-4-oxo-quinoline-3-carboxylic acid]
- IC50 (topoisomerase Iα): 23.5 ± 1.28 µM

SMILES: O=C(O)c1cn(C2CC2)c2cc(N3CCN(C(=O)CCCN4C(=O)S/C(=C\c5ccc([N+](=O)[O-])cc5)C4=O)CC3)c(F)cc2c1=O [3k]
- IC50 (topoisomerase Iα): 36.6 ± 1.99 µM
